{"source": "patent US4347319A", "about": "“Microbiological epoxidation process” (priority 1980, dated 1982)", "key": {"[1]": {"test_system": "Methylomonas methanica (CRL M4P) NRRL B-11,205", "assay": "Oxidation by washed cell suspensions of methane-grown cells", "assay_type": "cell-based", "method_in_brief": "(§1)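 Methane/air (1:1)-grown cells, 30 °C, 2 d; harvested, washed 2× in 0.15 M phosphate pH 7.0 + 0.002 M MgCl2. 2 mg cells/vial, gas phase substrate:O2 1:1 v/v, 30 °C, 300 rpm. GC-FID read-out over time.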"}, "[2]": {"test_system": "Methylobacter bovis (CRL 19 PM5) NRRL B-11,217", "assay": "Oxidation by washed cell suspensions of methane-grown cells", "assay_type": "cell-based", "method_in_brief": "as §1"}, "[3]": {"test_system": "Methylobacter chroococcum (CRL 23 PM8) NRRL B-11,215", "assay": "Oxidation by washed cell suspensions of methane-grown cells", "assay_type": "cell-based", "method_in_brief": "as §1"}, "[4]": {"test_system": "Methylococcus capsulatus (CRL 25 PM13) NRRL B-11,221", "assay": "Oxidation by washed cell suspensions of methane-grown cells", "assay_type": "cell-based", "method_in_brief": "as §1"}, "[5]": {"test_system": "Methylococcus minimus (CRL 24 PM12) NRRL B-11,220", "assay": "Oxidation by washed cell suspensions of methane-grown cells", "assay_type": "cell-based", "method_in_brief": "as §1"}, "[6]": {"test_system": "Methylomonas streptobacterium (CRL 17 PM3) NRRL B-11,208", "assay": "Oxidation by washed cell suspensions of methane-grown cells", "assay_type": "cell-based", "method_in_brief": "as §1"}, "[7]": {"test_system": "Methylomonas methanica (CRL 21 PM7) NRRL B-11,206", "assay": "Oxidation by washed cell suspensions of methane-grown cells", "assay_type": "cell-based", "method_in_brief": "as §1"}, "[8]": {"test_system": "Methylobacter capsulatus (Y, NRRL-B-11,201)", "assay": "Oxidation by cell suspensions of methane-grown cells", "assay_type": "cell-based", "conditions": "growth substrate Methane; n-alkane to secondary alcohol", "experimental": "(§2) The pH of the nutrient medium was adjusted to 7.0 by the addition of acid or base and 50 ml samples of the nutrient medium were charged into a plurality of 300 ml shaker flasks. The shaker flasks were inoculated with an inoculating loop of cells from an agar plate containing homogeneous colonies of the microorganisms on the plate (the purity of the isolates was confirmed by microscopic examination. The isolates had been maintained on agar plates under an atmosphere of methane and air having a 1:1 v/v gas ratio which had been transferred evey two weeks. The gaseous phase of the inoculated flasks was then replaced with a gas mixture comprised of methane and air having a ratio of 1:1 on a v/v basis. The inoculated flasks were sealed air tight and were incubated on a rotary shaker of orbital radius 2.5 cm at 250 rpm and at 30° C. for two days until turbidity in the medium had developed.\n(§3) The cells were harvested by centrifugation at 10,000×g. at 4° C. for 30 minutes. The cell pellet was washed twice with a 0.15 M phosphate buffer at a pH of 7.0 (containing 0.002 M MgCl2). The washed cells were then suspended in a 0.15 M phosphate buffer at pH 7.0.\n(§4) A 0.5 ml sample of each washed cell suspension (2 mg cells) was put into 10 ml vials at 4° C. which were sealed with a rubber cap. The gaseous phase of the vials was removed with vacuum and then was replaced with a gas mixture of the oxidative substrate (e.g., methane) and oxygen at a 1:1 v/v ratio. The vials were then incubated at 30 ° C. on a rotary shaker at 300 rpm. Samples of product (3 μl) were withdrawn periodically with a microsyringe and the products were analyzed by gas chromatography (ionization flame detector column).\n(§5) The conditions for preparing the cell suspensions or the cell-free particulate fractions from methane-grown methylotroph microorganisms is the same as described above."}, "[9]": {"test_system": "Methylococcus capsulatus (Texas, ATCC 19,069)", "assay": "Oxidation by cell suspensions of methane-grown cells", "assay_type": "cell-based", "conditions": "growth substrate Methane; n-alkane to secondary alcohol", "experimental": "as §2, §3, §4, §5"}, "[10]": {"test_system": "Methylosinus trichosporium OB3b (NRRL B-11,196)", "assay": "Oxidation by cell suspensions of methane-grown cells", "assay_type": "cell-based", "conditions": "growth substrate Methane; n-alkane to secondary alcohol", "experimental": "as §2, §3, §4, §5"}, "[11]": {"test_system": "Methylomonas rosaceus (CRL M7P) NRRL B-11,213", "assay": "Oxidation by washed cell suspensions of methane-grown cells", "assay_type": "cell-based", "conditions": "30° C., methane to methanol, alkene to 1,2-epoxide", "method_in_brief": "as §1"}, "[12]": {"test_system": "Methylomonas rubrum (CRL 20 PM6) NRRL B-11,211", "assay": "Oxidation by washed cell suspensions of methane-grown cells", "assay_type": "cell-based", "conditions": "for Oxidative Conversion Rates: methane-grown washed cells, 30° C., methane to methanol, alkene to 1,2-epoxide", "method_in_brief": "as §1"}, "[13]": {"test_system": "Methylomonas rubrum (CRL M6P) NRRL B-11,210", "assay": "Oxidation by washed cell suspensions of methane-grown cells", "assay_type": "cell-based", "conditions": "methane-grown washed cells, 30° C.; methane to methanol, alkene to 1,2-epoxide", "method_in_brief": "as §1"}, "[14]": {"test_system": "cell fractions of Methylomonas sp. (CRL-17, NRRL B-11,208)", "assay": "Oxidation by cell fractions P(40), P(80), S(80)", "assay_type": "biochemical", "conditions": "propylene to propylene oxide, methane to methanol, 30° C.", "method_in_brief": "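Cells washed and French-press disrupted in 25 mM K phosphate pH 7.0 with 5 mM MgCl2; particulate P(40), P(80) and soluble S(80) fractions from 40,000×g and 80,000×g spins. Methane or propylene (1:1 with O2) oxidised at 30° C with NADH; methanol/propylene oxide by GC; activity as μmoles product/h/mg protein.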"}, "[15]": {"test_system": "cell fractions of Methylosinus trichosporium (OB3b, NRRL B-11,196)", "assay_type": "biochemical", "conditions": "S(80); propylene to propylene oxide, methane to methanol; 30° C.", "experimental": "Cells were washed twice with 25 mM potassium phosphate buffer, pH 7.0 containing 5 mM MgCl2. Cells were suspended in the same buffer. The cell suspensions at 4° C. were disintegrated by a single passage through a French Pressure cell (15,000 lb./in.^2) and centrifuged at 5000×g. for 15 min. to remove unbroken bacteria. The supernatant solution (crude extract) was then centrifuged at 40,000×g. for 30 min., yielding particulate P(40) and soluble S(40) fractions. The S(40) fraction was subsequently centrifuged at 80,000×g. for 60 min., yielding particulate P(80) and soluble S(80) fractions. The particulate fractions [P(40) and P(80)] were suspended in 25 mM potassium phosphate buffer, pH 7.0, containing 5 mM MgCl2 and homogenized at 4° C.\nThe oxidation of methane and propylene by particulate [(P)40 and (P)80] fractions and soluble [S(80)] fraction was measured at 30° C. by estimating the production of methanol and propylene oxide, respectively. The reaction mixtures contained in […]: 150 mM potassium phosphate buffer, pH 7.0 containing 5 mM MgCl2 b, 0.6 ml; 10μ moles NADH, and cellular fraction.\nReaction mixtures were contained in 10 ml vials at 4° C. Vials were sealed with rubber caps. The gaseous phase in the vials was removed using vacuum and then was replaced with a gas mixture of methane or propylene and oxygen at a 1:1, v/v ratio. Oxidation of other gaseous n-alkanes and n-alkanes was examined as described above. For liquid substrates, 10 μl of substrate was used directly.\nThe products of epoxidation of n-alkenes and hydroxylation of n-alkanes were assayed by flame ionization gas chromatography using a stainless steel column (12'×1/8\") packed with 10% Carbowax 20 M on 80/100 Chromosorb W and Porapak Q column. The column temperature was maintained isothermally at 120° C. The carrier gas flow rate was 30 ml/min. of helium. The various products were identified by retention time comparisons and co-chromatography with authentic standards.\nSpecific activities were expressed as μ moles of products formed per hour per mg. protein. Concentrations of protein in various fractions were determined by the method of Lowry et al., J. Biol. Chem., 193: 265-275 (1951)."}, "[16]": {"conditions": "methane-grown washed cells, 30° C., methane to methanol, alkene to 1,2-epoxide"}}, "note": "Like-named read-outs stand apart in the source and are kept apart here.", "data": [{"smiles": "CCC(C)O", "note": "(stereo not drawn) [2-Butanol]", "values": [{"measurement": "Conversion Rate to Ketone, 2 hrs.", "setting": "[1]", "result": 0.06, "unit": "μmole/2 mg protein"}, {"measurement": "Conversion Rate to Ketone, 20 hrs.", "setting": "[1]", "result": 2, "unit": "μmole/2 mg protein"}]}, {"smiles": "C=CC=C", "note": "[Butadiene]", "values": [{"measurement": "Oxidative Conversion Rates", "setting": "[2]; [16]", "result": 2.3, "unit": "μmole/hr/mg protein"}, {"measurement": "Oxidative Conversion Rates", "setting": "[3]; [16]", "result": 1.8, "unit": "μmole/hr/mg protein"}, {"measurement": "Oxidative Conversion Rates", "setting": "[4]; [16]", "result": 2.5, "unit": "μmole/hr/mg protein"}, {"measurement": "Oxidative Conversion Rates", "setting": "[5]; [16]", "result": 3.0, "unit": "μmole/hr/mg protein"}, {"measurement": "Oxidative Conversion Rates", "setting": "[1]; [16]", "result": 1.0, "unit": "μmole/hr/mg protein"}, {"measurement": "Oxidative Conversion Rates", "setting": "[6]; [16]", "result": 2.6, "unit": "μmole/hr/mg protein"}]}, {"smiles": "CCCC", "note": "[Butane]", "values": [{"measurement": "Conversion Rate to Ketone", "setting": "[7]; methane-grown cells, butane to 2-butanone", "result": 1.5, "unit": "μmoles/hr/mg Protein"}, {"measurement": "Conversion Rate", "setting": "[6]", "result": 1.2, "unit": "μmoles/hr/^5 mg. protein"}, {"measurement": "Conversion Rate", "setting": "[8]", "result": 0.09, "unit": "μmoles/hr/^5 mg. protein"}, {"measurement": "Conversion Rate", "setting": "[9]", "result": 1.0, "unit": "μmoles/hr/^5 mg. protein"}, {"measurement": "Conversion Rate", "setting": "[10]", "result": 1.5, "unit": "μmoles/hr/^5 mg. protein"}]}, {"smiles": "C", "note": "[Methane]", "values": [{"measurement": "Oxidative Conversion Rates", "setting": "[2]", "result": 2.0}, {"measurement": "Oxidative Conversion Rates", "setting": "[3]", "result": 0.72}, {"measurement": "Oxidative Conversion Rates", "setting": "[4]", "result": 2.1}, {"measurement": "Oxidative Conversion Rates", "setting": "[5]", "result": 2.3}, {"measurement": "Oxidative Conversion Rates", "setting": "[1]", "result": 2.3}, {"measurement": "Oxidative Conversion Rates", "setting": "[11]", "result": 1.4, "unit": "μmole/hr/mg protein"}, {"measurement": "Oxidative Conversion Rates", "setting": "[12]", "result": 0.42, "unit": "μmole/hr/mg protein"}, {"measurement": "Oxidative Conversion Rates", "setting": "[13]", "result": 0.5, "unit": "μmole/hr/mg protein"}, {"measurement": "Oxidative Conversion Rates", "setting": "[6]", "result": 1.1}, {"measurement": "Oxidizing Activity (rate of oxidation) in cell fraction", "setting": "[14]; P(40)", "result": "2.9 μ moles of products formed per"}, {"measurement": "Oxidizing Activity (rate of oxidation) in cell fraction", "setting": "[14]; P(80)", "result": "2.7 μ moles of products formed per"}, {"measurement": "Oxidizing Activity (rate of oxidation) in cell fraction", "setting": "[14]; S(80)", "result": "0 μ moles of products formed per"}, {"measurement": "Oxidizing Activity (rate of oxidation) in cell fraction", "setting": "[15]", "result": "0 μ moles of products formed per"}]}, {"smiles": "CCC", "note": "[Propane]", "values": [{"measurement": "Conversion Rate to Ketone", "setting": "[12]; methane-grown cells, propane to acetone", "result": 3.5, "unit": "μmoles/hr/mg Protein"}, {"measurement": "Conversion Rate", "setting": "[6]; growth substrate Methane, n-alkane to secondary alcohol", "result": 1.6, "unit": "μmoles/hr/^5 mg. protein"}, {"measurement": "Conversion Rate", "setting": "[8]", "result": 0.20, "unit": "μmoles/hr/^5 mg. protein"}, {"measurement": "Conversion Rate", "setting": "[9]", "result": 1.1, "unit": "μmoles/hr/^5 mg. protein"}, {"measurement": "Conversion Rate", "setting": "[10]", "result": 2.5, "unit": "μmoles/hr/^5 mg. protein"}]}, {"smiles": "C=CC", "note": "[Propylene]", "values": [{"measurement": "Oxidative Conversion Rates", "setting": "[2]; [16]", "result": 2.2, "unit": "μmole/hr/mg protein"}, {"measurement": "Oxidative Conversion Rates", "setting": "[3]; [16]", "result": 2.5, "unit": "μmole/hr/mg protein"}, {"measurement": "Oxidative Conversion Rates", "setting": "[4]; [16]", "result": 1.2, "unit": "μmole/hr/mg protein"}, {"measurement": "Oxidative Conversion Rates", "setting": "[5]; [16]", "result": 1.8, "unit": "μmole/hr/mg protein"}, {"measurement": "Oxidative Conversion Rates", "setting": "[7]; [16]", "result": 2.4, "unit": "μmole/hr/mg protein"}, {"measurement": "Oxidative Conversion Rates", "setting": "[1]; [16]", "result": 3.8, "unit": "μmole/hr/mg protein"}, {"measurement": "Oxidative Conversion Rates", "setting": "[11]", "result": 2.0, "unit": "μmole/hr/mg protein"}, {"measurement": "Oxidative Conversion Rates", "setting": "[12]", "result": 1.9, "unit": "μmole/hr/mg protein"}, {"measurement": "Oxidative Conversion Rates", "setting": "[13]", "result": 1.0, "unit": "μmole/hr/mg protein"}, {"measurement": "Oxidative Conversion Rates", "setting": "[6]; [16]", "result": 1.0, "unit": "μmole/hr/mg protein"}, {"measurement": "Oxidizing Activity (rate of oxidation) in cell fraction", "setting": "[14]; P(40)", "result": "2.2 μ moles of products formed per"}, {"measurement": "Oxidizing Activity (rate of oxidation) in cell fraction", "setting": "[14]; P(80)", "result": "2.0 μ moles of products formed per"}, {"measurement": "Oxidizing Activity (rate of oxidation) in cell fraction", "setting": "[14]; S(80)", "result": "0 μ moles of products formed per"}, {"measurement": "Oxidizing Activity (rate of oxidation) in cell fraction", "setting": "[15]", "result": "0 μ moles of products formed per"}]}]}
